This is an account of results in patent US10376530B2, “Pharmaceutical composition for preventing or treating gleevec-resistant leukemia containing ginsenoside F1 or ginsenoside Rg3 as an active ingredient” (INTELLIGENT SYNTHETIC BIOLOGY CENTER, priority 2015, dated 2019).

Common to all, as to type: cell-based, human
Test [1] has as its system NK cells. As to the kind of experiment: CD107a level on NK cells in PBMC stimulated with K562 target cells, flow cytometry (Example 1). As to conditions: PBMC (NK cell purity 95% or higher) treated with ginsenoside, then K562 target cells; FIG. 1. The method, then:
To discover ginsenosides which can affect the cell-killing activity of NK cells, peripheral blood mononuclear cells (PBMC) separated from the blood were treated with 15 different kinds of (C-K, F2, PPD, Rb1, Rb2, Rc, Rd, Rg3, Rh2, F1, PPT, Re, Rg1, Rg2, and Rh1) ginsenosides, and then, the level of CD107a, which is a marker protein representing cell-killing activity and expressed on NK cells, was measured by flow cytometry (FIG. 1).
In particular, for the PBMC, those selected as follows were used. That is, the collected blood samples were transferred into Vacutainer Cell Preparation tubes (sodium heparin; BD Biosciences), centrifuged to recover a buffy coat, lymphocytes and monocyte band, and the recovered buffy coat was washed with PBS and applied to the human NK cell negative selection kit (Miltenyl Biotech) to isolate […].
Additionally, the CD107a level was measured as follows. […] Then, the NK cells were isolated by performing flow cytometry analysis using anti-CD3 antibody and anti-CD56 antibody, and the NK cells were immunostained using anti-CD107a antibody and the level of CD107a was measured.
For orientation: In flow cytometry, cells or beads pass a laser one at a time.

The subject of test [2] is NK cells. As to the kind of experiment: Intracellular IFN-γ expression by NK cells in PBMC stimulated with mutants of KCL-22 cells, flow cytometry (Example 2). The following applies: PBMC treated with ginsenoside, stimulated with equal number of mutants of KCL-22 cells, Brefeldin A; FIG. 2. As for the experimental part:
The 7 different kinds of ginsenosides discovered in Example 1 were treated and those ginsenosides which increased the expression level of the immune-stimulating factor (IFN-γ) by NK cells were selected (FIG. 2). In particular, the expression level of IFN-γ was measured as follows. That is, the PBMC samples isolated in Example 1 were treated with each ginsenoside, stimulated by treating with the equal number of target cells (mutants of KCL-22 cells), and then treated with Brefeldin A (GolgiPlug; BD Biosciences). Thereafter, a flow cytometry analysis was performed using fluochrome-conjugated anti-CD3 antibody and anti-CD56 antibody to identify NK cells present in PBMC, and then treated with Cytofix/Cytoperm (BD Biosicences) for perforation, and immunostained with fluochrome-conjugated anti-IFN-γ antibody to measure the intracellular level of IFN-γ(FIG. 2).

The test system of test [3] is NK cells. As to the kind of experiment: Concentration-dependent change of CD107a level on NK cells (Example 4). The following applies: NK cells isolated from PBMC, 5 μM to 20 μM; DMSO control; FIGS. 4A and 4B. The method, then:
NK cells isolated from PBMC were treated with ginsenoside F1 (which increases the selected CD107a level to the highest level) and Rg3 (which increases the selected CD107a level to the 2nd highest level), selected from Example 3, at various concentrations (5 μM to 20 μM), and the change in the CD107a level was measured (FIGS. 4A and 4B). In particular, NK cells treated with DMSO, instead of ginsenosides, were used as a control group.

Test [4] deals with Gleevec-resistant mutants of KCL-22 cells. As to the kind of experiment: Cell-killing activity of NK cells against europium-labeled target cells (Example 5). As to conditions: E:T ratios 0.625:1, 1.25:1, 2.5:1, 5:1; DMSO control; FIGS. 5A and 5B. The method, then: The NK cells isolated in Example 1 was treated with ginsenoside F1 or ginsenoside Rg3, and incubated with target cells (Gleevec-resistant mutants of KCL-22 cells) labeled with an europium fluorescent dye at various E:T ratios (the ratio between the number of NK cells:the number of target cells=0.625:1, 1.25:1, 2.5:1, or 5:1), and thereby breaking down the target cells with the NK cells activated by the ginsenoside, and the europium fluorescent dye labeled to the target cells was released as a reaction solution. Upon completion of the reaction, the level of the europium fluorescent dye contained in the reaction solution was measured, and the cell-killing activity of the NK cells was compared (FIGS. 5A and 5B). In particular, NK cells treated with DMSO, instead of ginsenosides, were used as control group.

The subject of test [5] is NK cells. As to the kind of experiment: CD107a level on primary NK cells incubated with mutants of KCL-22 cells (Example 3). The following applies: NK cells isolated from PBMC, incubated with mutants of KCL-22 cells (Gleevec-resistant leukemia cells); DMSO control; FIG. 3. The method, then: An attempt was made to select ginsenosides which induce the increase of the CD107a level on primary NK cells among the 4 different kinds of ginsenosides (Rg3, Rh2, F1, and Rg1) selected in Example 2.
Specifically, the NK cells isolated from the PBMC were activated by treating with the 4 different kinds of ginsenosides, then incubated with mutants of KCL-22 cells (i.e., Gleevec-resistant leukemia cells), and the level of CD107a on NK cells was measured and compared (FIG. 3). In particular, NK cells treated with DMSO, instead of ginsenosides, were used as a control group.

Turning to `CC(C)=CCC[C@](C)(O[C@@H]1O[C@H](CO)[C@@H](O)[C@H](O)[C@H]1O)[C@H]1CC[C@]2(C)[C@@H]1[C@H](O)C[C@@H]1[C@@]3(C)CC[C@H](O[C@@H]4O[C@H](CO)[C@@H](O)[C@H](O)[C@H]4O)C(C)(C)[C@@H]3CC[C@]12C` [F2], in test [1], the “level of CD107a expression on NK cells” value was “increase the level of CD107a expression on NK cells”.
As for `CC(C)=CCC[C@](C)(O[C@@H]1O[C@H](CO[C@@H]2O[C@H](CO)[C@@H](O)[C@H](O)[C@H]2O)[C@@H](O)[C@H](O)[C@H]1O)[C@H]1CC[C@]2(C)[C@@H]1[C@H](O)C[C@@H]1[C@@]3(C)CC[C@H](O[C@@H]4O[C@H](CO)[C@@H](O)[C@H](O)[C@H]4O[C@@H]4O[C@H](CO)[C@@H](O)[C@H](O)[C@H]4O)C(C)(C)[C@@H]3CC[C@]12C` [Rb1], the “level of CD107a expression on NK cells” value in test [1] is reported as “increase the level of CD107a expression on NK cells”.
`CC(C)=CCC[C@](C)(O[C@@H]1O[C@H](CO)[C@@H](O)[C@H](O)[C@H]1O)[C@H]1CC[C@]2(C)[C@@H]1[C@H](O)C[C@@H]1[C@@]3(C)CC[C@H](O)C(C)(C)[C@@H]3[C@@H](O[C@@H]3O[C@H](CO)[C@@H](O)[C@H](O)[C@H]3O)C[C@]12C` [Rg1]: the “expression level of IFN-γ by NK cells” value in test [2] was “increased”. The “level of CD107a expression on NK cells” value in test [1] is listed as “increase the level of CD107a expression on NK cells”.
As to `CC(C)=CCC[C@](C)(O)[C@H]1CC[C@]2(C)[C@@H]1[C@H](O)C[C@@H]1[C@@]3(C)CC[C@H](O)C(C)(C)[C@@H]3[C@@H](O[C@@H]3O[C@H](CO)[C@@H](O)[C@H](O)[C@H]3O[C@@H]3O[C@@H](C)[C@H](O)[C@@H](O)[C@H]3O)C[C@]12C` [Rg2], the “level of CD107a expression on NK cells” value in test [1] is recorded as “increase the level of CD107a expression on NK cells”.
As to `CC(C)=CCC[C@](C)(O)[C@H]1CC[C@]2(C)[C@@H]1[C@H](O)C[C@@H]1[C@@]3(C)CC[C@H](O[C@@H]4O[C@H](CO)[C@@H](O)[C@H](O)[C@H]4O)C(C)(C)[C@@H]3CC[C@]12C` [Rh2], in test [2], the “expression level of IFN-γ by NK cells” value is “increased”. Also, the “level of CD107a expression on NK cells” value in test [1] is given as “increase the level of CD107a expression on NK cells”.
In the case of `CC(C)=CCC[C@](C)(O)[C@H]1CC[C@]2(C)[C@@H]1[C@H](O)C[C@@H]1[C@@]3(C)CC[C@H](O[C@@H]4O[C@H](CO)[C@@H](O)[C@H](O)[C@H]4O[C@@H]4O[C@H](CO)[C@@H](O)[C@H](O)[C@H]4O)C(C)(C)[C@@H]3CC[C@]12C` [ginsenoside Rg3, 20(S)-protopanaxadiol-3-0-β-D-glucopyranosyl(1,2)-β-D-glucopyranoside], the “change in the CD107a level on NK cells by concentration” value in test [3] is “increase the expression levels of CD107a on NK cells in a concentration-dependent manner”. Also, the “expression level of IFN-γ by NK cells” value in test [2] was “increased”. For the same molecule, the “level of CD107a expression on NK cells” value in test [1] is “increase the level of CD107a expression on NK cells”. Further, the “cell-killing activity of NK cells (europium fluorescent dye release)” value in test [4] is on record as “promote the cell-killing activity of NK cells against mutants of KCL-22 cells”. The “level of CD107a on primary NK cells (rank among the 4 ginsenosides)” value in test [5] was found to be 2nd highest.
